The values that follow come from US20250042862A1, “AROMATIC HETEROCYCLIC COMPOUND AND APPLICATION THEREOF” (Shanghai Institute of Materia Medica, Chinese Academy of …, priority 2021, published 2025).

pIC50: −log10 of the molar value. A value given as a limit tells only on which side of the number the result lay.

This experiment addresses human recombinant LSD1 protein (Homo sapiens (Human), UniProt O60341). Briefly: In vitro enzyme inhibition activity assay - LSD1 (Lance Ultra TR-FRET). Type of experiment: biochemical. The following applies: all compounds tested in the form of hydrochloride. As to the method:
The purpose of this experiment was to test the in vitro inhibitory activity of the compounds against LSD1. The human recombinant LSD1 protein used in the experiment was purchased from Active Motif, and the enzyme level activity testing assay of LSD1 was performed using the Lance Ultra LSD1 Histone H3 Lysine 4 Demethylase Assay Kit (PerkinElmer). Tris-buffer (50 mMTris-HCl, 50 mMNaCl, 0.01% Tween-20, 1 mM DTT, 10 μM FAD, 10% glycerol, pH 9.0) was first prepared, and after preparation, the LSD1 fractions required for test were placed in this buffer and incubated for one hour at room temperature; the fractions included 4 μL of substrate solution ([…] Bio-H3K4me2, 1-24aa), 4 μL of enzyme solution (4 nM LSD1), and 2 μL of inhibitor in a 384-well microplate. After these operations, another 5 μL of assay mixture containing Eu-labeled H3K4me0 antibody and ULight-Streptavidin anti-biotin protein was added to the system, after which the fluorescence intensity of the components to be tested was detected by using Envision (PerkinElmer) in TR-FRET mode (excitation wavelength of 320 nm, emission wavelength of 620 nm). The test was repeated a total of three times to minimize errors. The final IC50 data were calculated by the software GraphPad Prism 5, and finally the sigmoidal dose-response (variable slope) method was used to obtain the fitted curve.
The LSD1 inhibitory activities of representative compounds of the present application as well as the positive control compound CC90011 were provided in Table 2. All compounds were tested in the form of hydrochloride.

For the compound `COC1=CC=C(c2c(-c3ccc(C#N)c(F)c3)nc(N3CCC(N)CC3)n(C)c2=O)CC1F` (stereo not shown) [CC90011, reference compound], the negative logarithm of the IC50 (pIC50) was not below 7.52. The result for `Cc1noc(C)c1-c1ccc2nc(N3CCC(N)CC3)nc(-c3ccc(C#N)c(F)c3)c2c1` [Compound 3, 4-(2-(4-aminopiperidin-1-yl)-6-(3,5-dimethylisoxazol-4-yl)quinazolin-4-yl)-2-fluorobenzonitrile] reads 6.52 to 7.52. The result for `Cc1ccccc1-c1ccc2nc(N3CCC(N)CC3)nc(-c3ccc(C#N)c(F)c3)c2c1` [Compound 6, 4-(2-(4-aminopiperidin-1-yl)-6-(o-methylphenyl)quinazolin-4-yl)-2-fluorobenzonitrile] reads 6.52 to 7.52; that for `Cc1cccc(-c2ccc3nc(N4CCC(N)CC4)nc(-c4ccc(C#N)c(F)c4)c3c2)c1` [Compound 8, 4-(2-(4-aminopiperidin-1-yl)-6-(m-methylphenyl)quinazolin-4-yl)-2-fluorobenzonitrile], 6.52 to 7.52. The result for `Cn1ncc2cc(-c3ccc4nc(N5CCC(N)CC5)nc(-c5ccc(C#N)c(F)c5)c4c3)ccc21` [Compound 9, 4-(2-(4-aminopiperidin-1-yl)-6-(1-methyl-1H-indazol-5-yl)quinazolin-4-yl)-2-fluorobenzonitrile] reads 6.52 to 7.52.

On to `Cn1ncc2c(-c3ccc4nc(N5CCC(N)CC5)nc(-c5ccc(C#N)c(F)c5)c4c3)cccc21` [Compound 10, 4-(2-(4-aminopiperidin-1-yl)-6-(1-methyl-1H-indazol-4-yl)quinazolin-4-yl)-2-fluorobenzonitrile], for which the pIC50 was 6.52 to 7.52. For `Cn1ncc2cccc(-c3ccc4nc(N5CCC(N)CC5)nc(-c5ccc(C#N)c(F)c5)c4c3)c21` [Compound 11, 4-(2-(4-aminopiperidin-1-yl)-6-(1-methyl-1H-indazol-7-yl)quinazolin-4-yl)-2-fluorobenzonitrile], the pIC50 is not below 7.52. Consider `Cc1cccc(C)c1-c1ccc2nc(N3CCC(N)CC3)nc(-c3ccc(C#N)c(F)c3)c2c1` [Compound 12, 4-(2-(4-Aminopiperidin-1-yl)-6-(2,6-dimethylphenyl)quinazolin-4-yl)-2-fluorobenzonitrile], for which the pIC50 is not below 7.52. The result for `N#Cc1ccc(-c2nc(N3CCC(N)CC3)nc3ccc(-c4ccccc4OC(F)(F)F)cc23)cc1F` [Compound 13, 4-(2-(4-aminopiperidin-1-yl)-6-(2-(trifluoromethoxy)phenyl)quinazolin-4-yl)-2-fluorobenzonitrile] reads 6.52 to 7.52; that for `N#Cc1ccc(-c2nc(N3CCC(N)CC3)nc3ccc(-c4ccccc4C(F)(F)F)cc23)cc1F` [Compound 14, 4-(2-(4-aminopiperidin-1-yl)-6-(2-(trifluoromethyl)phenyl)quinazolin-4-yl)-2-fluorobenzonitrile], not below 7.52; that for `N#Cc1ccc(-c2nc(N3CCC(N)CC3)nc3ccc(-c4ccccc4F)cc23)cc1F` [Compound 15, 4-(2-(4-aminopiperidin-1-yl)-6-(2-fluorophenyl)quinazolin-4-yl)-2-fluorobenzonitrile], 6.52 to 7.52. Under `N#Cc1ccc(-c2nc(N3CCC(N)CC3)nc3ccc(-c4ccccc4Cl)cc23)cc1F` [Compound 16, 4-(2-(4-aminopiperidin-1-yl)-6-(2-chlorophenyl)quinazolin-4-yl)-2-fluorobenzonitrile] stands not below 7.52. Under `N#Cc1ccc(-c2nc(N3CCC(N)CC3)nc3ccc(-c4cccc(F)c4F)cc23)cc1F` [Compound 17, 4-(2-(4-aminopiperidin-1-yl)-6-(2,3-difluorophenyl)quinazolin-4-yl)-2-fluorobenzonitrile] stands 6.52 to 7.52. `N#Cc1ccc(-c2nc(N3CCC(N)CC3)nc3ccc(-c4c(Cl)cccc4Cl)cc23)cc1F` [Compound 20, 4-(2-(4-aminopiperidin-1-yl)-6-(2,6-dichlorophenyl)quinazolin-4-yl)-2-fluorobenzonitrile]: the pIC50 was not below 7.52. Under `Cc1cccc(Cl)c1-c1ccc2nc(N3CCC(N)CC3)nc(-c3ccc(C#N)c(F)c3)c2c1` [Compound 21, 4-(2-(4-Aminopiperidin-1-yl)-6-(2-chloro-6-methylphenyl)quinazolin-4-yl)-2-fluorobenzonitrile] stands not below 7.52; under `N#Cc1ccc(-c2nc(N3CCC(N)CC3)nc3ccc(-c4c(F)cccc4Cl)cc23)cc1F` [Compound 22, 4-(2-(4-Aminopiperidin-1-yl)-6-(2-chloro-6-fluorophenyl)quinazolin-4-yl)-2-fluorobenzonitrile], not below 7.52; under `N#Cc1ccc(-c2nc(N3CCC(N)CC3)nc3ccc(-c4cccc(F)c4C(F)(F)F)cc23)cc1F` [Compound 23, 4-(2-(4-Aminopiperidin-1-yl)-6-(3-fluoro-2-(trifluoromethyl)phenyl)quinazolin-4-yl)-2-fluorobenzonitrile], not below 7.52. Under `COc1ccc(-c2ccc3nc(N4CCC(N)CC4)nc(-c4ccc(C#N)nc4)c3c2)cc1F` [Compound 24, 5-(2-(4-aminopiperidin-1-yl)-6-(3-fluoro-4-methoxyphenyl)quinazolin-4-yl)pyridinecarbonitrile] stands 6.52 to 7.52; under `COc1ccc(-c2ccc3nc(N4CCC(N)CC4)nc(-c4ccc(C#N)cc4)c3c2)cc1F` [Compound 25, 4-(2-(4-aminopiperidin-1-yl)-6-(3-fluoro-4-methoxyphenyl)quinazolin-4-yl)benzonitrile], 6.52 to 7.52. Under `COc1ccc(-c2ccc3nc(NCC4CCNC4)nc(-c4ccc(C#N)c(F)c4)c3c2)cc1F` (stereo not shown) [Compound 29, 2-Fluoro-4-(6-(3-fluoro-4-methoxyphenyl)-2-((pyrrolidin-3-ylmethyl)amino)quinazolin-4-yl)benzonitrile] stands 6.52 to 7.52. Regarding `Cc1ccccc1-c1ccc2nc(NCC3CCNC3)nc(-c3ccc(C#N)c(F)c3)c2c1` (stereo not shown) [Compound 34, 2-Fluoro-4-(2-((pyrrolidin-3-ylmethyl)amino)-6-(o-methylphenyl)quinazolin-4-yl)benzonitrile], the negative-log IC50 (pIC50) is not below 7.52. With `COc1ccc(-c2ccc3nc(NC[C@H]4CCNC4)nc(-c4ccc(C#N)c(F)c4)c3c2)cc1F` [Compound 35, (S)-2-fluoro-4-(6-(3-fluoro-4-methoxyphenyl)-2-((pyrrolidin-3-ylmethyl)amino)quinazolin-4-yl)benzonitrile], the pIC50 was 6.52 to 7.52. Under `COc1ccc(-c2ccc3nc(NC[C@@H]4CCNC4)nc(-c4ccc(C#N)c(F)c4)c3c2)cc1F` [Compound 36, (R)-2-fluoro-4-(6-(3-fluoro-4-methoxyphenyl)-2-((pyrrolidin-3-ylmethyl)amino)quinazolin-4-yl)benzonitrile] stands 6.52 to 7.52; under `Cc1ccccc1-c1ccc2nc(NC[C@H]3CCNC3)nc(-c3ccc(C#N)c(F)c3)c2c1` [Compound 37, (S)-2-fluoro-4-(2-((pyrrolidin-3-ylmethyl)amino)-6-(o-methylphenyl)quinazolin-4-yl)benzonitrile], 6.52 to 7.52; under `Cc1ccccc1-c1ccc2nc(NC[C@@H]3CCNC3)nc(-c3ccc(C#N)c(F)c3)c2c1` [Compound 38, (R)-2-fluoro-4-(2-((pyrrolidin-3-ylmethyl)amino)-6-(o-methylphenyl)quinazolin-4-yl)benzonitrile], 6.52 to 7.52. The result for `N#Cc1ccc(-c2nc(NC[C@H]3CCNC3)nc3ccc(-c4ccccc4OC(F)(F)F)cc23)cc1F` [Compound 39, (S)-2-fluoro-4-(2-((pyrrolidin-3-ylmethyl)amino)-6-(2-(trifluoromethoxy)phenyl)quinazolin-4-yl)benzonitrile] reads 6.52 to 7.52; that for `N#Cc1ccc(-c2nc(NC[C@H]3CCNC3)nc3ccc(-c4ccccc4F)cc23)cc1F` [Compound 41, (S)-2-fluoro-4-(2-((pyrrolidin-3-ylmethyl)amino)-6-(2-fluorophenyl)quinazolin-4-yl)-2-fluorobenzonitrile], 6.52 to 7.52; that for `N#Cc1ccc(-c2nc(NC[C@H]3CCNC3)nc3ccc(-c4cccc(F)c4F)cc23)cc1F` [Compound 43, (S)-2-fluoro-4-(2-((pyrrolidin-3-ylmethyl)amino)-6-(2,3-difluorophenyl)quinazolin-4-yl)-2-fluorobenzonitrile], 6.52 to 7.52. The result for `Cc1cscc1-c1ccc2nc(NC[C@H]3CCNC3)nc(-c3ccc(C#N)c(F)c3)c2c1` [Compound 44, (S)-2-fluoro-4-(6-(4-methylthiophen-3-yl)-2-((pyrrolidin-3-ylmethyl)amino)quinazolin-4-yl)benzonitrile] reads 6.52 to 7.52. Turning to `Cc1cccc(C)c1-c1ccc2nc(NC[C@H]3CCNC3)nc(-c3ccc(C#N)c(F)c3)c2c1` [Compound 45, (S)-4-(6-(2,6-dimethylphenyl)-2-((pyrrolidin-3-ylmethyl)amino)quinazolin-4-yl)-2-fluorobenzonitrile], the pIC50 is not below 7.52.

In the case of `Cc1cc(C)c(-c2ccc3nc(NC[C@H]4CCNC4)nc(-c4ccc(C#N)c(F)c4)c3c2)c(C)c1` [Compound 46, (S)-4-(6-(2,4,6-trimethylphenyl)-2-((pyrrolidin-3-ylmethyl)amino)quinazolin-4-yl)-2-fluorobenzonitrile], the pIC50 was not below 7.52.
